The values that follow come from patent US8575197B2, “Pyrolinone derivative and pharmaceutical composition comprising the same” (Shionogi & Co., Ltd., priority 2008, dated 2013).

The target of the assay is human P2X3 receptor (Homo sapiens (Human), UniProt P56373). The experiment in a line: P2X3 receptor inhibition, ATP-evoked Fluo-3 calcium fluorescence (FDSS 3000). Conditions: C6BU-1 cell transfected with human P2X3 receptor gene; ATP-evoked Fluo-3 fluorescence. It counts as cell-based. A digest of the protocol: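 C6BU-1 cells stably transfected with human P2X3, loaded with 4 μM Fluo-3-AM for 1 h at 37 °C in HEPES buffer pH 7.5 with probenecid. Compound added 5 min before 40 nM ATP solution; fluorescence followed 3 min. IC50 from ratio of peak post-ATP to baseline fluorescence.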
Chain of human P2X3 receptor (P56373 whole entry): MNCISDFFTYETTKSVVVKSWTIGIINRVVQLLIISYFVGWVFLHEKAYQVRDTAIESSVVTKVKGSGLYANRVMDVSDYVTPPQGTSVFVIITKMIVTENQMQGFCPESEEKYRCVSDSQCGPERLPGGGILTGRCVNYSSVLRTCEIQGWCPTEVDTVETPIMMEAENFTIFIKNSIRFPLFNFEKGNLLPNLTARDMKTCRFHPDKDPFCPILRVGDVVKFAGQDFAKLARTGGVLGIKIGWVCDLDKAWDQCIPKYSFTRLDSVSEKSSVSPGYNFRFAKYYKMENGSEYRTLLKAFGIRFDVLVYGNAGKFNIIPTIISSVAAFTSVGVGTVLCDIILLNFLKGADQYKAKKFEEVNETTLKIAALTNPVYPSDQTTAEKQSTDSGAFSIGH
As to `CC(C)C(=O)C1=C(O)C(=O)N(c2ccc(-c3ccsc3)cc2)C1c1ccccc1OCC(CO)CO` (stereo not shown) [Compound I-456], the IC50 – broadly, the concentration needed to halve the response being measured – turned out to be 6 nM.

With `COc1ccccc1C1C(C(=O)C(C)C)=C(O)C(=O)N1c1ccc(-c2cc(C)on2)cc1` (stereo not shown) [Compound I-457], the IC50 turned out to be 488 nM.

Regarding `COCc1ccccc1C1C(C(=O)C(C)C)=C(O)C(=O)N1c1ccc(-c2cc(C)on2)cc1` (stereo not shown) [Compound I-458], the IC50 came out at 699 nM.

`CC(C)Oc1ccccc1C1C(C(=O)C(C)C)=C(O)C(=O)N1c1ccc(N2CCCC2)cc1` (stereo not shown) [Compound I-459]: the IC50 was found to be 26 nM.

For the compound `COc1ccccc1C1C(C(=O)c2cccnc2)=C(O)C(=O)N1c1ccc(-c2ccsc2)cc1` (stereo not shown) [Compound I-460], the IC50 stood at 103 nM.

In the case of `COCc1ccccc1C1C(C(=O)c2cccnc2)=C(O)C(=O)N1c1ccc(-c2ccsc2)cc1` (stereo not shown) [Compound I-461], the IC50 is 36 nM.

In the case of `COc1ncccc1C1C(C(=O)CC(C)(C)C)=C(O)C(=O)N1c1ccc(-c2ccsc2)cc1` (stereo not shown) [Compound I-462], the IC50 stood at 427 nM.

As for `COCCOc1ncccc1C1C(C(=O)CC(C)(C)C)=C(O)C(=O)N1c1ccc(-c2ccsc2)cc1` (stereo not shown) [Compound I-463], the IC50 stood at 127 nM.

Turning to `CCc1nc2cc(N3C(=O)C(O)=C(C(=O)C(C)C)C3c3ccccc3OC(C)C)ccc2o1` (stereo not shown) [Compound I-464], the IC50 was determined as 453 nM.

In the case of `COCCOc1ccccc1[C@@H]1C(C(=O)C(C)C)=C(O)C(=O)N1c1ccc(-c2ccc(C)s2)cc1` [Compound I-465], the IC50 stood at 7 nM.

Consider `CN(C)C(=O)c1ccccc1C1C(C(=O)CC(C)(C)C)=C(O)C(=O)N1c1ccc(-c2ccsc2)cc1` (stereo not shown) [Compound I-466], for which the IC50 was found to be 260 nM.

For `COc1ccccc1C1C(S(=O)(=O)C(C)C)=C(O)C(=O)N1c1ccc(-c2ccc(C)o2)cc1` (stereo not shown) [Compound I-467], the IC50 was found to be 286 nM.

As for `COc1ccccc1C1C(S(C)(=O)=O)=C(O)C(=O)N1c1ccc(-c2ccc(C)o2)cc1` (stereo not shown) [Compound I-468], the IC50 is 467 nM.

As to `Cc1nc(-c2ccc(NC3=CC(C4CCCCC4)N(c4ccc(-c5noc(C)n5)cc4)C3=O)cc2)no1` (stereo not shown) [Compound I-469], the half-maximal inhibitory concentration (IC50) was found to be 646 nM.

As for `CCOC(=O)C(C)(C)C(=O)C1=C(O)C(=O)N(c2ccc(-c3csc(C)c3)cc2)C1c1ccccc1OC` (stereo not shown) [Compound I-470], the IC50 was determined as 972 nM.

Take `COCCCOc1ncccc1C1C(C(=O)C(C)C)=C(O)C(=O)N1c1ccc(-c2ccc(C)o2)cc1` (stereo not shown) [Compound I-471]: the IC50 was 19 nM.

In the case of `COCCOc1ncccc1[C@@H]1C(C(=O)C(C)C)=C(O)C(=O)N1c1ccc(-c2ccc(C)s2)cc1` [Compound I-472], the IC50 amounted to 7 nM.

As to `COc1ccccc1C1C(C(=O)C(C)C)=C(O)C(=O)N1c1ccc(SC)cc1` (stereo not shown) [Compound I-473], the IC50 amounted to 182 nM.

On to `CSc1ccc(N2C(=O)C(O)=C(C(=O)C(C)C)C2c2ccccc2OC(C)C)cc1` (stereo not shown) [Compound I-474], for which the IC50 came out at 71 nM.

Take `COCCOc1ccccc1C1C(C(=O)C(C)C)=C(O)C(=O)N1c1ccc(SC)cc1` (stereo not shown) [Compound I-475]: the IC50 amounted to 181 nM.

On to `CSc1ccc(N2C(=O)C(O)=C(C(=O)C(C)C)C2c2ccccc2OCCCO)cc1` (stereo not shown) [Compound I-476], for which the IC50 was found to be 51 nM.

Turning to `COCc1ccccc1C1C(C(=O)C(C)C)=C(O)C(=O)N1c1ccc(SC)cc1` (stereo not shown) [Compound I-477], the IC50 is 477 nM.

As to `Cc1ccc(-c2ccc(N3C(=O)C(O)=C(C(=O)C(C)C)C3c3cccnc3OCCCO)cc2)o1` (stereo not shown) [Compound I-478], the IC50 was 34 nM.

On to `Cc1ccc(-c2ccc(N3C(=O)C(O)=C(C(=O)C(C)C)C3c3cccnc3OC(C)C)cc2)o1` (stereo not shown) [Compound I-479], for which the IC50 amounted to 10 nM.

`COc1ccc(C(=O)C2=C(O)C(=O)N(c3ccc(-c4cc(C)on4)cc3)C2c2ccccc2OC)cc1` (stereo not shown) [Compound I-480]: the IC50 came to 42 nM.

As to `COCCOc1ccccc1C1C(C(=O)C(C)C)=C(O)C(=O)N1c1ccc(-c2cc(C)on2)cc1` (stereo not shown) [Compound I-481], the IC50 turned out to be 378 nM.

With `O=C1C(O)=C(S(=O)(=O)c2ccccc2)C(C2CCCCC2)N1c1ccc(-c2ccon2)cc1` (stereo not shown) [Compound I-482], the IC50 was found to be 333 nM.

Regarding `Cc1ccc(-c2ccc(N3C(=O)C(O)=C(C(=O)C(C)C)C3c3cccnc3OCCO)cc2)o1` (stereo not shown) [Compound I-483], the IC50 was 89 nM.

On to `COCCCOc1ccccc1C1C(C(=O)C(C)C)=C(O)C(=O)N1c1ccc(SC)cc1` (stereo not shown) [Compound I-484], for which the IC50 is 91 nM.

On to `COCCOc1ncccc1C1C(C(=O)C(C)C)=C(O)C(=O)N1c1ccc(SC)cc1` (stereo not shown) [Compound I-485], for which the IC50 amounted to 218 nM.

For `Cc1ccc(-c2ccc(N3C(=O)C(O)=C(C(=O)C(C)C)C3c3ccccc3N3CCOCC3)cc2)o1` (stereo not shown) [Compound I-486], the IC50 is 4 nM.

Consider `Cc1nc(-c2ccc(N3C(=O)C(O)=C(C(=O)C(C)C)C3c3ccccc3N3CCOCC3)cc2)no1` (stereo not shown) [Compound I-487], for which the IC50 came out at 167 nM.

As to `Cc1nc(-c2ccc(N3C(=O)C(O)=C(C(=O)CC(C)C)C3c3ccccc3N3CCOCC3)cc2)no1` (stereo not shown) [Compound I-488], the IC50 stood at 67 nM.

As for `COCCCOc1ccccc1C1C(C(=O)C(C)C)=C(O)C(=O)N1c1ccc(-c2ccsc2)cc1` (stereo not shown) [Compound I-489], the IC50 amounted to 6 nM.

For `COCCCOc1ccccc1C1C(C(=O)CC(C)C)=C(O)C(=O)N1c1ccc(-c2ccsc2)cc1` (stereo not shown) [Compound I-490], the IC50 worked out at 17 nM.

With `COCCCOc1ccccc1C1C(C(=O)C(C)C)=C(O)C(=O)N1c1ccc(-c2noc(C)n2)cc1` (stereo not shown) [Compound I-491], the IC50 was 155 nM.

As to `COCCCOc1ccccc1C1C(C(=O)CC(C)C)=C(O)C(=O)N1c1ccc(-c2noc(C)n2)cc1` (stereo not shown) [Compound I-492], the IC50 stood at 104 nM.

In the case of `Cc1ccc(-c2ccc(N3C(=O)C(O)=C(C(=O)C(C)C)C3c3ccccc3CC(=O)N(C)C)cc2)o1` (stereo not shown) [Compound I-493], the IC50 came to 105 nM.

As to `CCN(C)C(=O)c1ccccc1C1C(C(=O)C(C)C)=C(O)C(=O)N1c1ccc(-c2csc(C)c2)cc1` (stereo not shown) [Compound I-494], the IC50 worked out at 53 nM.

For the compound `CCN(C)C(=O)c1ccccc1C1C(C(=O)C(C)C)=C(O)C(=O)N1c1ccc(-c2ccc(C)o2)cc1` (stereo not shown) [Compound I-495], the IC50 was 59 nM.

For `COCCN(C)C(=O)c1ccccc1C1C(C(=O)CC(C)C)=C(O)C(=O)N1c1ccc(-c2ccc(C)o2)cc1` (stereo not shown) [Compound I-496], the IC50 amounted to 55 nM.

For `COCCN(C)C(=O)c1ccccc1C1C(C(=O)CC(C)C)=C(O)C(=O)N1c1ccc(-c2csc(C)c2)cc1` (stereo not shown) [Compound I-497], the IC50 amounted to 36 nM.

Regarding `CC(C)CC(=O)C1=C(O)C(=O)N(c2ccc(-c3ccsc3)cc2)C1c1ccccc1OCC(CO)CO` (stereo not shown) [Compound I-498], the IC50 came to 8 nM.

In the case of `Cc1nc(-c2ccc(N3C(=O)C(O)=C(S(=O)(=O)c4ccccc4)C3C3CCCCC3)cc2)no1` (stereo not shown) [Compound I-499], the IC50 was 398 nM.

Consider `Cc1cc(-c2ccc(N3C(=O)C(O)=C(C(=O)C(C)C)C3c3ccccc3OCC3OCCO3)cc2)cs1` (stereo not shown) [Compound I-500], for which the IC50 turned out to be 12 nM.

Regarding `Cc1nc(-c2ccc(N3C(=O)C(O)=C(C(=O)C(C)C)C3c3ccccc3OCC3OCCO3)cc2)no1` (stereo not shown) [Compound I-501], the IC50 came out at 52 nM.

`Cc1nc(-c2ccc(N3C(=O)C(O)=C(C(=O)C(C)C)C3c3ccccc3OC3CCOCC3)cc2)no1` (stereo not shown) [Compound I-502]: the IC50 came to 67 nM.

`Cc1nc(-c2ccc(N3C(=O)C(O)=C(C(=O)C(C)C)C3c3ccccc3OC3CCCC3)cc2)no1` (stereo not shown) [Compound I-503]: the IC50 came to 17 nM.

For the compound `Cc1ccc(-c2ccc(N3C(=O)C(O)=C(C(=O)CC(C)C)C3c3cccnc3C(=O)OC(C)C)cc2)s1` (stereo not shown) [Compound I-504], the IC50 stood at 238 nM.

Consider `Cc1cc(-c2ccc(N3C(=O)C(O)=C(C(=O)CC(C)C)C3c3ccccc3C(=O)N3CCOCC3)cc2)cs1` (stereo not shown) [Compound I-505], for which the IC50 amounted to 168 nM.

As for `Cc1ccc(-c2ccc(N3C(=O)C(O)=C(C(=O)CC(C)C)C3c3ccccc3C(=O)N3CCOCC3)cc2)o1` (stereo not shown) [Compound I-506], the IC50 came out at 112 nM.

With `Cc1cc(-c2ccc(N3C(=O)C(O)=C(C(=O)C(C)C)C3c3ccccc3S(C)(=O)=O)cc2)cs1` (stereo not shown) [Compound I-507], the IC50 is 101 nM.

In the case of `Cc1nc(-c2ccc(N3C(=O)C(O)=C(C(=O)C(C)C)C3c3ccccc3OCC#N)cc2)no1` (stereo not shown) [Compound I-508], the IC50 turned out to be 133 nM.

In the case of `CSc1ccc(N2C(=O)C(O)=C(C(=O)C(C)C)C2c2ccccc2OCC#N)cc1` (stereo not shown) [Compound I-509], the IC50 was 247 nM.

On to `CSc1ccc(N2C(=O)C(O)=C(C(=O)CC(C)C)C2c2ccccc2OCC#N)cc1` (stereo not shown) [Compound I-511], for which the concentration for half-maximal inhibition (IC50) worked out at 117 nM.

For the compound `CC(C)Oc1ccccc1C1C(C(=O)C2CCCC2)=C(O)C(=O)N1c1ccc(-c2ccon2)cc1` (stereo not shown) [Compound I-512], the IC50 turned out to be 62 nM.

Consider `CC(C)COc1ccccc1C1C(C(=O)C2CCCC2)=C(O)C(=O)N1c1ccc(-c2ccon2)cc1` (stereo not shown) [Compound I-513], for which the IC50 was determined as 65 nM.

In the case of `CN(C)C(=O)c1ccccc1C1C(C(=O)C2CCCC2)=C(O)C(=O)N1c1ccc(-c2ccsc2)cc1` (stereo not shown) [Compound I-514], the IC50 came out at 138 nM.

Regarding `CCOc1ncccc1C1C(C(=O)C2CCCC2)=C(O)C(=O)N1c1ccc(-c2ccsc2)cc1` (stereo not shown) [Compound I-515], the IC50 worked out at 37 nM.

Take `COCc1ccccc1C1C(C(=O)C2CCCC2)=C(O)C(=O)N1c1ccc(-c2ccsc2)cc1` (stereo not shown) [Compound I-516]: the IC50 came out at 33 nM.

For `COCCOc1ncccc1C1C(C(=O)C2CCCC2)=C(O)C(=O)N1c1ccc(-c2ccsc2)cc1` (stereo not shown) [Compound I-517], the IC50 worked out at 26 nM.

Consider `Cc1nc(-c2ccc(N3C(=O)C(O)=C(C(=O)C4CCCC4)C3c3ccccc3OC(C)C)cc2)no1` (stereo not shown) [Compound I-518], for which the IC50 worked out at 87 nM.

For `Cc1nc(-c2ccc(N3C(=O)C(O)=C(C(=O)C4CCCC4)C3c3ccccc3OCC(C)C)cc2)no1` (stereo not shown) [Compound I-519], the IC50 is 33 nM.

As to `COCCOc1ncccc1C1C(C(=O)C2CCCC2)=C(O)C(=O)N1c1ccc(-c2ccon2)cc1` (stereo not shown) [Compound I-521], the IC50 stood at 554 nM.
